{"source": "patent US10287259B2", "about": "“Selenazolidine and thiazolidine compounds for treating cancer and other diseases” (The Penn State Research Foundation, priority 2016, dated 2019)", "tested_on": "Panc-1 cells", "assay": "Live/dead assay with calcein-AM and ethidium bromide", "format": "cell-based", "conditions": "Panc-1, 48 h; AS-10 2.5 μM, gemcitabine 50 μM", "experimental": "To determine the dead cell population, we used LIVE/DEAD Viability/Cytotoxicity Kit (L3224, Life technologies, USA). Panc-1 cells were treated with either DMSO, gemcitabine (50 μM), or AS-10 (2.5 μM) or in combination for 48 h. Live and dead cells were determined by subjecting treated cells to LIVE/DEAD Viability/Cytotoxicity Kit (Plano et al., 2016, J. Med. Chem. 1946-1959). […] While ethidium homodimer-1 can only enter cells who have lost their plasma membrane integrity or dead cells and fluorescents red. Stained cells were visualized using a fluorescence microscope (Zeiss—Axio Scope.A1) with a 20× objective lens. Percentage values of live and dead cells were calculated.", "data": [{"smiles": "CC(=O)Oc1ccccc1C(=O)/N=C1\\[Se]CCN1C(=O)c1ccccc1OC(C)=O", "note": "[AS-10, 2-((3-(2-acetoxybenzoyl)-1,3-selenazolidin-2-ylidene)carbamoyl)phenyl acetate]", "values": [{"measurement": "dead cells", "result": "~10", "unit": "%"}]}]}
